Tested on: 3T3-L1 cells
Assay: PEGn-TAT variants: inhibition of differentiation of 3T3-L1 cells and of fatty acid synthesis
Type: cell-based
Description: 3T3-L1 cells were cultured in DMEM (high glucose, pyruvate, GIBCO CAT #11995) supplemented with 10% calf serum and 1% penicillin-streptomycin (P/S). Cells were seeded in a 6-well culture plate, and when the cells reached a confluency of 60 to 70%, MDI, a differentiation initiation medium, was added at a 1× concentration. At this time, the cells were treated with each of TAT-38, X-FAT8, and PEGn-TAT at a concentration of 1 to 10 μM. After 2 days, MDI was replaced with insulin, and each of AT-38, X-FAT8, and PEGn-TAT was added to fresh medium every day during culture. From day 4, culture was continued for 4 days in maintenance medium. Thereafter, the cell status was checked and recorded every day. When necessary, the cells were fixed and the amount of fatty acids was analyzed by Oil-O red staining.

“TACTNCYCAKCCFHCQVC-(Peg)7-RAKRRQRRR [PEG7-TAT]” was tested, and the “differentiation inhibitory ability and intracellular lipid accumulation, 3T3-L1 cells” value (4 days (FIG. 12A) and 6 days (FIG. 12B) after the initiation of differentiation) was “very high”, the “differentiation inhibitory ability and intracellular lipid accumulation, 3T3-L1 cells” value (4 days after the initiation of differentiation, FIG. 11A) was “very high” and the “differentiation inhibitory ability, 3T3-L1 cells” value (6 days after the induction of differentiation, FIG. 11B) was “still significant”. The “differentiation and intracellular lipid accumulation, 3T3-L1 cells, Oil-O-Red staining” value (8 days after the initiation of differentiation, FIG. 13) was “strong inhibition of differentiation and inhibition of intracellular lipid accumulation”.
